US20240360174A1, “CELL-PENETRATING PEPTIDE SEQUENCES” (Ohio State Innovation Foundation, priority 2016, published 2024)
Bridge positions count the residues as written; N and C are the ends. Square brackets hold non-standard residues; d marks the D form. Ends that are not written are not given here. 2Nal = N[C@@H](Cc1ccc2ccccc2c1)C(=O)O; Pip = O=C(O)[C@@H]1CCCCN1; Dap = NC[C@H](N)C(=O)O

system: HeLa cells; assay: Cellular uptake / cytosolic delivery efficiency of NF-labelled peptides by flow cytometry; format: cell-based; settings: 2 h, 5 mM naphthofluorescein-labelled peptide, relative to CPP 1 (100%), mean ± S.D. of three independent experiments
Text: Absolute cytosolic delivery efficiency is the ratio of cytosolic concentration of a CPP (or a CPP-cargo conjugate) over the concentration of the CPP (or the CPP-cargo conjugate) in the growth medium. Relative cytosolic delivery efficiency refers to the concentration of a CPP in the cytosol compared to the concentration of a control CPP in the cytosol. Quantification can be achieved by fluorescently labeling the CPP (e.g., with a FTIC dye) and measuring the fluorescence intensity using techniques well-known in the art.
In particular embodiments, relative cytosolic delivery efficiency is determined by comparing (i) the amount of a CPP of the invention internalized by a cell type (e.g., HeLa cells) to (ii) the amount of the control CPP internalized by the same cell type. To measure relative cytosolic delivery efficiency, the cell type may be incubated in the presence of a cell-penetrating peptide of the invention for a specified period of time (e.g., 30 minutes, 1 hour, 2 hours, etc.) after which the amount of the CPP internalized by the cell is quantified using methods known in the art, e.g., fluorescence microscopy. Separately, the same concentration of the control CPP is incubated in the presence of the cell type over the same period of time, and the amount of the control CPP internalized by the cell is quantified.
To determine cellular uptake efficiency of the CPPs disclosed herein, HeLa cells were cultured in 12-well plates (1.5×10^5 cells per well) overnight. The cells were incubated for 2 h with […] naphthofluorescein (NF)-labelled peptide in cellular media. At the end of incubation, the cells were washed with DPBS twice, detached from the plate with 0.25% trypsin, diluted into clear DMEM, pelleted at 250 g for 5 min, washed twice with DPBS, resuspended in DPBS, and analyzed on a BD FACS LSR II flow cytometer. For NF-labelled peptides, a 633-nm laser was used for excitation and the fluorescence emission was analyzed in the APC channel. Absolute cellular uptake efficiency was determined by comparing the concentration (via fluorescence intensity) of the CPP in the cytosol to the concentration in the extracellular medium.

| Substance | Relative Cytosolic Delivery Efficiency [%] |
| --- | --- |
| Ac-(Dap-fFRrRrD) (Ac-[Dap][dF]FR[dR]R[dR]D; not fully specified (bridges); printed as Ac-(Dap-fFRrRrD); also: cyclic, closure sites not given here) [SAR 67] | 126 ± 33 |
| Ac-(Lys-fFRrRrD) (K[dF]FR[dR]R[dR]D; not fully specified (N-terminus, bridges); printed as Ac-(Lys-fFRrRrD); also: cyclic, closure sites not given here) [SAR 66] | 129 ± 9 |
| SAR 68 (CWWRRRRC; disulfide 1-8) | 51 |
| SAR 69 (CWWVRRRRC; disulfide 1-9) | 67 |
| SAR 70 (CFWRRRRC; disulfide 1-8) | 49 |
| SAR 71 (CWWWRRRC; disulfide 1-8) | 135 |
| cyclo(FFFRAQ) (cyclic) [SAR 26] | 52 ± 2 |
| cyclo(FFFRRQ) (cyclic) [SAR 27] | 125 ± 25 |
| cyclo(FFFRRRQ) (cyclic) [SAR 34] | 231 ± 43 |
| cyclo(FFFRRRRQ) (cyclic) [SAR 45] | 122 ± 20 |
| cyclo(FFFRRRRRQ (cyclic) [SAR 53] | 145 ± 27 |
| cyclo(FFFRRRRRR (FFFRRRRRRQ; cyclic) [SAR 54] | 141 ± 10 |
| cyclo(FFRFRRQ) (cyclic) [SAR 38] | 106 ± 22 |
| cyclo(FFRRFRQ) (cyclic) [SAR 39] | 86 ± 12 |
| cyclo(FFRRFRRQ) (cyclic) [SAR 50] | 46 ± 2 |
| cyclo(FFRRRFQ) (cyclic) [SAR 35] | 158 ± 21 |
| cyclo(FFRRRQ) (cyclic) [SAR 19] | 89 ± 34 |
| cyclo(FFRRRRFQ) (cyclic) [SAR 51] | 162 ± 16 |
| cyclo(FFRRRRQ) (cyclic) [SAR 28] | 89 ± 27 |
| cyclo(FFRrRQ) (cyclo(FFR[dR]RQ); SMILES N=C(N)NCCC[C@@H]1NC(=O)[C@H](Cc2ccccc2)NC(=O)[C@H](Cc2ccccc2)NC(=O)[C@H](CCC(N)=O)NC(=O)[C@H](CCCNC(=N)N)NC(=O)[C@@H](CCCNC(=N)N)NC1=O) [SAR 21] | 59 ± 7 |
| cyclo(FFrRrQ) (cyclo(FF[dR]R[dR]Q); SMILES N=C(N)NCCC[C@@H]1NC(=O)[C@@H](CCCNC(=N)N)NC(=O)[C@H](Cc2ccccc2)NC(=O)[C@H](Cc2ccccc2)NC(=O)[C@H](CCC(N)=O)NC(=O)[C@@H](CCCNC(=N)N)NC1=O) [SAR 20] | 118 ± 5 |
| cyclo(FRFRFRQ) (cyclic) [SAR 42] | 105 ± 14 |
| cyclo(FRFRRQ) (cyclic) [SAR 22] | 15 ± 3 |
| cyclo(FRFRRRQ) (cyclic) [SAR 33] | 132 ± 57 |

| Substance | Relative Cytosolic Delivery Efficiency [%] |
| --- | --- |
| cyclo(FRRFFRQ) (cyclic) [SAR 40] | 109 ± 11 |
| cyclo(FRRFFRRQ) (cyclic) [SAR 52] | 127 ± 22 |
| cyclo(FRRFRFQ) (cyclic) [SAR 41] | 101 ± 16 |
| cyclo(FRRFRQ) (cyclic) [SAR 23] | 38 ± 10 |
| cyclo(FRRFRRQ) (cyclic) [SAR 29] | 31 ± 3 |
| cyclo(FRRRFQ) (cyclic) [SAR 24] | 25 ± 4 |
| cyclo(FRRRFRQ) (cyclic) [SAR 30] | 20 ± 3 |
| cyclo(FfFRrRQ) (cyclo(F[dF]FR[dR]RQ); SMILES N=C(N)NCCC[C@@H]1NC(=O)[C@H](Cc2ccccc2)NC(=O)[C@@H](Cc2ccccc2)NC(=O)[C@H](Cc2ccccc2)NC(=O)[C@H](CCC(N)=O)NC(=O)[C@H](CCCNC(=N)N)NC(=O)[C@@H](CCCNC(=N)N)NC1=O) [SAR 57] | 218 ± 9 |
| cyclo(FfFrRrQ) (cyclo(F[dF]F[dR]R[dR]Q); SMILES N=C(N)NCCC[C@@H]1NC(=O)[C@@H](CCCNC(=N)N)NC(=O)[C@H](Cc2ccccc2)NC(=O)[C@@H](Cc2ccccc2)NC(=O)[C@H](Cc2ccccc2)NC(=O)[C@H](CCC(N)=O)NC(=O)[C@@H](CCCNC(=N)N)NC1=O) [SAR 60] | 205 ± 30 |
| cyclo(FΦRRRQ) (cyclo(F[2Nal]RRRRQ); SMILES N=C(N)NCCC[C@@H]1NC(=O)[C@H](CCCNC(=N)N)NC(=O)[C@H](CCCNC(=N)N)NC(=O)[C@H](Cc2ccc3ccccc3c2)NC(=O)[C@H](Cc2ccccc2)NC(=O)[C@H](CCC(N)=O)NC(=O)[C@H](CCCNC(=N)N)NC1=O) [SAR 1, control CPP, reference compound] | 100 ± 6 |
| cyclo(FΦRrRrQ) (cyclo(F[2Nal]R[dR]R[dR]Q); SMILES N=C(N)NCCC[C@@H]1NC(=O)[C@H](Cc2ccc3ccccc3c2)NC(=O)[C@H](Cc2ccccc2)NC(=O)[C@H](CCC(N)=O)NC(=O)[C@@H](CCCNC(=N)N)NC(=O)[C@H](CCCNC(=N)N)NC(=O)[C@@H](CCCNC(=N)N)NC1=O) [SAR 55] | 212 ± 42 |
| cyclo(FΦrRrQ) (cyclo(F[2Nal][dR]R[dR]Q); SMILES N=C(N)NCCC[C@@H]1NC(=O)[C@@H](CCCNC(=N)N)NC(=O)[C@H](Cc2ccc3ccccc3c2)NC(=O)[C@H](Cc2ccccc2)NC(=O)[C@H](CCC(N)=O)NC(=O)[C@@H](CCCNC(=N)N)NC1=O) [SAR 64] | 63 ± 11 |
| cyclo(GΦRRRQ) [SAR 25] (cyclo(G[2Nal]RRRQ); SMILES N=C(N)NCCC[C@@H]1NC(=O)[C@H](Cc2ccc3ccccc3c2)NC(=O)CNC(=O)[C@H](CCC(N)=O)NC(=O)[C@H](CCCNC(=N)N)NC(=O)[C@H](CCCNC(=N)N)NC1=O) | 49 ± 5 |
| cyclo(GΦRRRQ) [SAR 44] (cyclo(G[2Nal]RRRRQ); SMILES N=C(N)NCCC[C@@H]1NC(=O)[C@H](Cc2ccc3ccccc3c2)NC(=O)CNC(=O)[C@H](CCC(N)=O)NC(=O)[C@H](CCCNC(=N)N)NC(=O)[C@H](CCCNC(=N)N)NC(=O)[C@H](CCCNC(=N)N)NC1=O) | 55 ± 5 |
| cyclo(Pip-Nal-Arg-Arg-arg-arg-glu) (cyclo([Pip][2Nal]RR[dR][dR][dE]); SMILES N=C(N)NCCC[C@@H]1NC(=O)[C@H](Cc2ccc3ccccc3c2)NC(=O)[C@@H]2CCCCN2C(=O)[C@@H](CCC(=O)O)NC(=O)[C@@H](CCCNC(=N)N)NC(=O)[C@@H](CCCNC(=N)N)NC(=O)[C@H](CCCNC(=N)N)NC1=O) [Pin1 16] | 18 ± 2 |
| cyclo(Pip-Nal-Arg-Glu-arg-arg-glu) (cyclo([Pip][2Nal]RE[dR][dR][dE]); SMILES N=C(N)NCCC[C@@H]1NC(=O)[C@H](Cc2ccc3ccccc3c2)NC(=O)[C@@H]2CCCCN2C(=O)[C@@H](CCC(=O)O)NC(=O)[C@@H](CCCNC(=N)N)NC(=O)[C@@H](CCCNC(=N)N)NC(=O)[C@H](CCC(=O)O)NC1=O) [Pin1 15] | 7.7 ± 0.5 |
| cyclo(Pip-Nal-Nal-Arg-arg-arg-Glu) [Pin1 18] | 340 ± 130 |
| cyclo(Pip-Nal-Nal-Arg-arg-arg-glu) [Pin1 17] | 506 ± 120 |
| cyclo(Pip-Nal-Phe-Arg-arg-arg-Glu) [Pin1 20] | 15 ± 6 |
| cyclo(Pip-Nal-Phe-Arg-arg-arg-glu) (cyclo([Pip][2Nal]FR[dR][dR][dE]); SMILES N=C(N)NCCC[C@@H]1NC(=O)[C@H](Cc2ccccc2)NC(=O)[C@H](Cc2ccc3ccccc3c2)NC(=O)[C@@H]2CCCCN2C(=O)[C@@H](CCC(=O)O)NC(=O)[C@@H](CCCNC(=N)N)NC(=O)[C@@H](CCCNC(=N)N)NC1=O) [Pin1 19] | 19 ± 16 |
| cyclo(Pip-Nal-nal-Arg-arg-arg-Glu) [Pin1 23] | 215 ± 86 |
| cyclo(Pip-Nal-nal-Arg-arg-arg-glu) [Pin1 24] | 141 ± 64 |
| cyclo(Pip-Nal-phe-Arg-arg-arg-Glu) (cyclo([Pip][2Nal][dF]R[dR][dR]E); SMILES N=C(N)NCCC[C@@H]1NC(=O)[C@@H](Cc2ccccc2)NC(=O)[C@H](Cc2ccc3ccccc3c2)NC(=O)[C@@H]2CCCCN2C(=O)[C@H](CCC(=O)O)NC(=O)[C@@H](CCCNC(=N)N)NC(=O)[C@@H](CCCNC(=N)N)NC1=O) [Pin1 22] | 15 ± 6 |
